The source of these data is PMC4474691, “Leukemia-Associated Mutations in Nucleophosmin Alter Recognition by CRM1: Molecular Basis of Aberrant Transport” (PLoS ONE, 2015).

The target of assay [1] is T1, CRM1^HA (Mus musculus, UniProt Q6P5F9, L431A/V430A/V432A).
T1 construct: His-ZZ (cleaved yes); made in house; host or cells: Escherichia coli BL21-CodonPlus (DE3)
Nature of the assay: Fluorescence anisotropy binding assay, CRM1^HA. To be noted: 0–60 μM CRM1^HA, 25°C. The method, then:
(§1) Fluorescence anisotropy binding assays
To estimate CRM1 binding affinities for NES motifs we monitored binding with a fluorescence-polarization assay based on previously described approaches. The increase in fluorescence anisotropy of TFP/YFP when the TFP/YFP-NES construct (50 nM) binds to 0–60 μM CRM1 (either CRM^HA or wild type) was recorded at 25°C with a 8100 SLM-Aminco spectrofluorometer in buffer 20 mM Tris/HCl, pH 7.4, 50 mM NaCl, 5 mM DTT, 2 mM MgCl2. Excitation and emission wavelengths were 463, 500 nm for TFP and 463, 533 nm for YFP, and slits width 4 and 8 nm, respectively.
Fig 4 Binding of CRM1 to TFP-NES constructs. (A) Scheme of the engineered TFP constructs, showing the sequence of the NES motifs. Φ residues are highlighted in red. (B) Titration of CRM1 onto the different TFP constructs (50 nM), at 25°C, in buffer 20 mM Tris/HCl, pH 7.4, 50 mM NaCl, 5 mM DTT, 2 mM MgCl2: Left panel: Binding of CRM1^HA (solid symbols) or wild type CRM1 (empty symbols) to TFP-PKI(NES). Right panel: Binding of CRM1^HA to TFP-mutE(NES) (triangles) and TFP-mutA(NES) (squares). Fraction bound was calculated from the relative increase in fluorescence anisotropy of TFP (λexc 463 nm, λem 500 nm). Error bars correspond to at least three measurements per CRM1 concentration.
We next used the TFP-(NES) constructs to monitor CRM1^HA binding to each motif, using the change in fluorescence anisotropy upon complex formation as a readout (Fig 4B), as previously described. […] The different nature of the fluorescent tag, and/or the linker between the fluorescent protein and the NES (2 residues longer in the YFP-PKI construct) could explain the discrepancy. […] To isolate the CRM1 / NES interaction under study from the influence of the tag protein, we have also conducted binding assays with peptides corresponding to the NES motifs (see below).
A general note: In fluorescence polarisation assays a small probe gives low polarisation when free and higher when bound to something large.

In assay [2] the target is T1, CRM1^HA. Briefly: Ni-NTA chromatography of TFP-NES / CRM1^HA complex formation. The assay is classed as binding. To be noted: 2.5 mg His-tagged TFP construct on 1 mL Histrap FF, 1 mL CRM1^HA 18 μM; 50 mM Tris/HCl pH 8.0, 500 mM NaCl; SDS-PAGE. The source says:
Although the relative potency of the NESs acquired by the different NPM mutants has been compared using an in vivo export assay, their CRM1-binding affinities have not yet been determined. We cloned the NESs of mutant A and E as C-terminal fusions to a teal fluorescent protein (TFP) (Fig 4A). As a reference, we generated an equivalent construct with the well-characterized NES of protein kinase inhibitor (PKI). We first tested the binding of CRM1^HA to the TFP-NES constructs using Ni-NTA chromatography. His-tagged TFP constructs were bound to the Ni-NTA column, and an excess of untagged CRM1^HA was then injected (S4 Fig).
Supplementary file pone.0130610.s004.tif: S4 Fig TFP-NES / CRM1^HA complex formation shown by Ni-NTA chromatography. 2.5 mg of the His-tagged TFP construct were loaded on a 1 mL Histrap FF (GE Healthcare) in buffer 50 mM Tris/HCl, pH 8.0, 500 mM NaCl, 1 mM TCEP, 2 mM MgCl2, 5% glycerol, containing 15 mM imidazole. After washing with the same buffer, 1 mL of CRM1^HA at 18 μM was injected at 0.1 mL/min flow rate. Unbound CRM1^HA was collected, and then bound proteins were eluted with 2 M imidazole. SDS-PAGE of elution fractions: Unbound (free) CRM1^HA and the fraction eluted with imidazole, containing both the His-tagged TFP construct along with bound CRM1^HA. (TIF) Click here for additional data file.

Assay [3] concerns the target T1, CRM1^HA. Briefly: Isothermal titration calorimetry, CRM1^HA / NES. The assay is classed as binding. To be noted: ITC, 20°C; for Kd: read-out: KD. The procedure:
Isothermal titration calorimetry (ITC)
ITC measurements were carried out using a VIP-ITC MicroCalorimeter (MicroCal, Inc., Northampton, MA). TFP and YFP constructs, as well as CRM1^HA, were dialyzed in a buffer containing 20 mM HEPES, pH 7.4, 50 mM NaCl, 1 mM TCEP, 1 mM MgCl2, and degassed prior to the experiment. Untagged peptides (AS: QDLCLAVEEVSLRK, AL: EAIQDLCLAVEEVSLRK, ES: QDLWQSLAQVSLRK and EL: EAIQDLWQSLAQVSLRK), N-acetylated and 95% pure, were purchased from Proteogenix (Schiltigheim, France) and resuspended in the ITC buffer. Measurements were performed at 20°C. TFP-NES, YFP-NES or NES peptides at 35–180 μM were titrated onto CRM1^HA at 2–14 μM. Injections of 6 μL were performed at 320 seconds interval (the first injection always was of 1 μL and is not considered in data analysis). To determine the thermodynamic parameters of NPM / importin interaction, importin α, importin Δα or importin α/β at 45–60 μM were titrated onto NPM (1–1.2 μM pentamer) in 50 mM Tris/HCl, pH 7.5, 100 mM NaCl, 2 mM TCEP, and 10% glycerol. […] “Reverse” titrations, where 20–30 μM NPM was titrated onto 7–10 μM of the different importins were also performed and yielded similar results.
The reaction heat of each injection is related to the calorimetric enthalpy of binding, ΔH^0. The binding isotherms, ΔH^0 vs. molar ratio, were analyzed with an independent binding sites model using MicroCal Origin software. The fit of the binding curve yields the binding constant KA (KD = 1/KA) and the enthalpy ΔH^0 of the binding reaction. The Gibbs free energy of binding ΔG^0 and the entropy ΔS^0 are determined from the basic thermodynamic expressions: ΔG^0 = -RTlnKA = ΔH^0−TΔS^0, where R and T are the gas constant and the absolute temperature, respectively.
Fig 5 Analysis of CRM1^HA/TFP-NES interaction by ITC. Isothermal titration of CRM1^HA with TFP-mutE(NES). […] The titration of negative control TFP-Cter (180 μM) onto CRM1^HA (14 μM) (circles) is also shown for comparison.

A further assay has as its system wild type CRM1. Nature of the assay: Fluorescence anisotropy binding assay, wild type CRM1. The arrangement: species or system mouse. Conditions: TFP-PKI 50 nM, 25°C, 20 mM Tris/HCl pH 7.4, wild type CRM1, compared with CRM1^HA.
Excerpt: For recombinant production in E. coli, we subcloned wild type NPM, as well as mutants A and E, as N-terminal (His)10 –ZZ tagged constructs in pTG-A20 vector [22]. The original clone of wild type mouse CRM1, N-terminally fused to a His—ZZ tag was a kind gift of Dr. Dirk Görlich (Max Planck Institute for Biophysical Chemistry, Göttingen). We generated the high affinity CRM1 mutant (CRM1^HA) from a clone provided by Dr. Murray Stewart (MRC Laboratory of Molecular Biology, Cambridge). […]
as §1
To estimate CRM1 binding affinities for NES motifs we monitored binding with a fluorescence-polarization assay based on previously described approaches. The increase in fluorescence anisotropy of TFP/YFP when the TFP/YFP-NES construct (50 nM) binds to 0–60 μM CRM1 (either CRM^HA or wild type) was recorded at 25°C with a 8100 SLM-Aminco spectrofluorometer in buffer 20 mM Tris/HCl, pH 7.4, 50 mM NaCl, 5 mM DTT, 2 mM MgCl2. […]
Fig 4 Binding of CRM1 to TFP-NES constructs. […] Fraction bound was calculated from the relative increase in fluorescence anisotropy of TFP (λexc 463 nm, λem 500 nm). […]
We next used the TFP-(NES) constructs to monitor CRM1^HA binding to each motif, using the change in fluorescence anisotropy upon complex formation as a readout (Fig 4B), as previously described. […]

Assay [4] deals with T1, CRM1^HA. To be noted: previously described, CRM1^HA binding to YFP-PKI(NES); cited from earlier work. The source says:
We next used the TFP-(NES) constructs to monitor CRM1^HA binding to each motif, using the change in fluorescence anisotropy upon complex formation as a readout (Fig 4B), as previously described.

In a further assay the target is importin α/β. To be noted: importin α/β binding of nucleoplasmin; cited from earlier work. The source says:
Our study has explored the molecular determinants of both NPM export (CRM1/NES) and import (importin α/β/NLS). […] This lower affinity could be related to the fact that NPM NLS includes one basic residue less in the major cluster of the bipartite motif than NP NLS. […] This, together with the very low affinity of CRM1 for wild type NPM and significant avidity for nucleolar comp ...

The subject of a further assay is CRM1. To be noted: cited from earlier work. The source says: Two sequence motifs in the core domain of NPM (residues 42–61 and 94–102) (Fig 1) have been investigated as candidate NESs. In addition, we have detected a further putative NES in the C-terminal region (see below). However, it is still unclear to what extent any of these sequences represents NPM physiological NESs.

The mark [5] stands for this setting: NES ligand (35–180 μM) titrated onto CRM1^HA (2–14 μM), 20 mM HEPES pH 7.4, 50 mM NaCl, 1 mM TCEP, 1 mM MgCl2, independent binding sites model.

Where two headings read alike, the source gives them in different places.

T1 sequence (Q6P5F9 1-1062 V430A/L431A/V432A limits assumed): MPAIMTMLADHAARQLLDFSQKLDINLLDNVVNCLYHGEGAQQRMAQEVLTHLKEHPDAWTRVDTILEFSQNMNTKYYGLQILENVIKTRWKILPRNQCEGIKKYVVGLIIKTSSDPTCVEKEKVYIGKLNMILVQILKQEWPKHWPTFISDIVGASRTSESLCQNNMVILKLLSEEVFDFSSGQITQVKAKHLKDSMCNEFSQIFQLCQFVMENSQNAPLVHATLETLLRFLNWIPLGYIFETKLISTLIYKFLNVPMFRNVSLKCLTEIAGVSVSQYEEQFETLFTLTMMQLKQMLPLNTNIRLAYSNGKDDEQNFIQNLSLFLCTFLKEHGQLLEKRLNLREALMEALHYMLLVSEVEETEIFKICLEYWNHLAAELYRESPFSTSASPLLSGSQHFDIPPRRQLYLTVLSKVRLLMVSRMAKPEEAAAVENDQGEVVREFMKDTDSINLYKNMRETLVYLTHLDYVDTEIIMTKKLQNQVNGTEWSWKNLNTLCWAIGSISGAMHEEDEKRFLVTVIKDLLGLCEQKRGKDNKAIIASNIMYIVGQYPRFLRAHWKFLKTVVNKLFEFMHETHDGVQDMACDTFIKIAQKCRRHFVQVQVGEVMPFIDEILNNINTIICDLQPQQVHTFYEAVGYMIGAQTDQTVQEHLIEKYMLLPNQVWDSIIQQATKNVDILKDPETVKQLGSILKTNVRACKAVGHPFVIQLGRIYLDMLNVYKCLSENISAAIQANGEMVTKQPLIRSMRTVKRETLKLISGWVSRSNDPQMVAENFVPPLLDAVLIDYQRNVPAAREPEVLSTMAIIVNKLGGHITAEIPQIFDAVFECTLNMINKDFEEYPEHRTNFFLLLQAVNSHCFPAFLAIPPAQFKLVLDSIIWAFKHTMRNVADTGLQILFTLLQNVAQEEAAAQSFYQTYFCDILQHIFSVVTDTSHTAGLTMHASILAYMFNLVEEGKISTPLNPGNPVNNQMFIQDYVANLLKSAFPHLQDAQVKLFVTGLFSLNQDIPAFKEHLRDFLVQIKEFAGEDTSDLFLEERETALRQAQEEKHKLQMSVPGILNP

With “DLCLAVEEVSLRK [TFP-mutA(NES), NES of NPM mutant A as C-terminal fusion to teal fluorescent protein]”, the Kd on CRM1^HA [1] (TFP-NES 50 nM, pH 7.4, rounded, read-out: apparent KD) came out at 5000 nM; on CRM1^HA [1] (TFP/YFP-NES construct 50 nM, 20 mM Tris/HCl pH 7.4, 50 mM NaCl, 5 mM DTT, 2 mM MgCl2, at least three measurements per CRM1 concentration, read-out: apparent KD (C50)) it was 4970 ± 1180 nM; at CRM1^HA [3] (setting [5]), 2380 ± 698 nM; at CRM1^HA [3] (TFP-NES titrated onto CRM1^HA, 20 mM HEPES pH 7.4, rounded), 2400 nM. Further, the “CRM1^HA binding in Ni-NTA chromatography” value at CRM1^HA [2] was “not even detected in these conditions”. The same substance showed a ΔH at CRM1^HA [3] (NES ligand titrated onto CRM1^HA, 20 mM HEPES pH 7.4) of -14.5 ± 6.2 kcal/mol. The “-TΔS” value at CRM1^HA [3] (NES ligand titrated onto CRM1^HA, 20 mM HEPES pH 7.4, from ΔG = ΔH − TΔS) is 6.9 ± 6.1 kcal/mol. The “n (binding stoichiometry)” value on CRM1^HA [3] (NES ligand titrated onto CRM1^HA, 20 mM HEPES pH 7.4, low n of peptides might result from limited solubility) is listed as 0.54 ± 0.27. The ΔG on CRM1^HA [3] (NES ligand titrated onto CRM1^HA, 20 mM HEPES pH 7.4, ΔG = -RTlnKA) is on record as -7.6 ± 0.1 kcal/mol.

Consider LALKLAGLDI [TFP-PKI(NES)], for which the “CRM1^HA binding in Ni-NTA chromatography” value at CRM1^HA [2] was “stronger than its binding to TFP- mutE(NES)”. Also, the “binding of wild type CRM1” value with wild type CRM1 is “much weaker than that of CRM1^HA”.

For “YFP-PKI(NES): previously described YFP-PKI(NES) construct (LALKLAGLDI; fusion to YFP (carrier omitted); linker stated to be 2 residues longer than in TFP construct) [reference compound]”, the Kd with CRM1^HA [4] was 25 nM; in the assay with CRM1^HA [3] (setting [5]) it was 18 ± 3 nM.

Turning to “nucleoplasmin: homologous protein nucleoplasmin”, the Kd at importin α/β is 57 nM.

Regarding “residues 42–61: candidate NES motif in the core domain of NPM (LSLRTVSLGAGAKDELHIVE; UniProt P06748 42-61, looked up, fragment)”, the “binding to CRM1” value in the assay with CRM1 was “no binding to CRM1”.
